Laboratory results taken from patent US20240425523A1, “Compounds for the Degradation of EGFR Kinase” (Beigene Switzerland GMBH, priority 2023, published 2024).

How the values were obtained:
Format in all cases: cell-based
[1] = target: T1, EGFR L858R (BaF3-L858R cells) (Homo sapiens, UniProt P00533, L858R); assay: Cell degradation of EGFR, HTRF assay, BaF3-L858R cells; details: 16 h treatment; for DC50: EGFR degradation; for Dmax: maximum percentage of degradation
T1 construct: host or cells: BaF3
Summary of the method: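 EGFR L858R levels measured by HTRF antibody pair in lysed BaF3-L858R cells after 16 h compound exposure (8-point 5-fold series from 10 uM final, 37° C). Degradation is relative to DMSO-only cells; DC50 fitted with Hill equation, Dmax taken as the largest percent loss.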

[2] = target: p-EGFR Del19/C797S (H1975-clone #23 cells) (Homo sapiens, UniProt P00533); assay: Cell p-EGFR inhibition assay, HTRF, H1975-clone#23 (DEL19/C797S) cells; details: 16 h treatment; for Imax (%): maximum percentage of pEGFR inhibition; for IC50: pEGFR inhibition
Summary of the method: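 Phospho-EGFR read by overnight HTRF on lysates, normalized to DMSO-treated high control; IC50, Hill slope and Imax fitted. Compounds were applied for 16 h (10 uM top, 5-fold steps, 8 doses) to an H1975 single clone carrying only exogenous Del19/C797S EGFR after sgRNA knockout of endogenous copies.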

[3] = target: T2, p-EGFR L858R (BaF3-L858R cells) (Homo sapiens, UniProt P00533, L858R); assay: Cell p-EGFR inhibition assay, HTRF, BaF3-L858R cells; details: 16 h treatment; for Imax (%): maximum percentage of pEGFR inhibition; for IC50: pEGFR inhibition
T2 construct: host or cells: BaF3
Summary of the method: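 BaF3-L858R cells treated 16 h at 37 °C, 5% CO2 with compound from 10 uM top, 5-fold dilutions, 8 doses, in 0.1% DMSO medium. Lysates read overnight by HTRF p-EGFR antibodies; IC50 fitted to four-parameter curve against DMSO high control.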

[4] = target: T3, EGFR-L858R/C797S (H1975-clone #8 cells) (Homo sapiens, UniProt P00533, C797S/L858R); assay: Cell degradation of EGFR, HTRF assay, H1975-clone#8 (L858R/C797S) cells; details: 16 h treatment; for DC50: EGFR degradation; for Dmax: maximum percentage of degradation
T3 construct: expressed in transfected cells; host or cells: H1975 (endogenous EGFR knocked out, clone #8)

| SMILES | DC50 [1] | Dmax [1] | Imax (%) [2] | IC50 [2] | Imax (%) [3] | IC50 [3] | DC50 [4] | Dmax [4] |
| --- | --- | --- | --- | --- | --- | --- | --- | --- |
| Cc1cc2cc(n1)-c1cnn(C)c1OC[C@H]1CC[C@H](C1)CN1/C(=N/C2=O)Nc2ccc(N3CCN(C4CCN(c5ccc(OC6CCC(=O)NC6=O)nc5C)CC4)CC3)cc21 (some centres unmarked) [Example 137, 3-((5-(4-(4-((7^1R,7^3S,E)-1^1,2^6-dimethyl-3-oxo-5^2,5^3-dihydro-1^1H,5^1H-9-oxa-4-aza-5(2,1)-benzo[d]imidazola-2(2,4)-pyridina-1(4,5)-pyrazola-7(1,3)-cyclopentanacyclononaphane-5^6-yl)piperazin-1-yl)piperidin-1-yl)-6-methylpyridin-2-yl)oxy)piperidine-2,6-dione] | 2.37 nM | 83.3% | 98.8% | 0.528 nM | 96.47% | 14.6 nM | 3.35 nM | 78.2% |
| Cc1cc2cc(n1)-c1c(C)nn(C)c1OC[C@H]1CC[C@H](C1)CN1/C(=N/C2=O)Nc2ccc(N3CCC(CN(C)C4CCN(c5cc(F)c([C@H]6CCC(=O)NC6=O)c(F)c5)CC4)CC3)cc21 [Example 138, (R)-3-(2,6-difluoro-4-(4-(methyl((1-((7^1R,7^3S,E)-1^1,1^3,2^6-trimethyl-3-oxo-5^2′5^3-dihydro-1^1H,5^1H-9-oxa-4-aza-5(2,1)-benzo[d]imidazola-2(2,4)-pyridina-1(4,5)-pyrazola-7(1,3)-cyclopentanacyclononaphane-5^6-yl)piperidin-4-yl)methyl)amino)piperidin-1-yl)phenyl)piperidine-2,6-dione] | 3.61 nM | 85.5% | 102.96% | 1.37 nM | 104.27% | 7.09 nM | 1.27 nM | 83.4% |
| COC[C@H]1CN(c2ccc3c(c2)N2C[C@@H]4CC[C@H](COc5c(c(C)nn5C)-c5cc(cc(C)n5)C(=O)/N=C/2N3)C4)CCN1C1CCN(c2ccc(OC3CCC(=O)NC3=O)cc2C)CC1 (stereo partly drawn) [Example 140, 3-(4-(4-((R)-2-(methoxymethyl)-4-((7^1R,7^3S,E)-1^1,1^3,2^6-trimethyl-3-oxo-5^2,5^3-dihydro-1^1H,5^1H-9-oxa-4-aza-5(2,1)-benzo[d]imidazola-2(2,4)-pyridina-1(4,5)-pyrazola-7(1,3)-cyclopentanacyclononaphane-5^6-yl)piperazin-1-yl)piperidin-1-yl)-3-methylphenoxy)piperidine-2,6-dione] | 3.04 nM | 93.3% | 101.57% | 1.03 nM | 96.47% | 6.86 nM | 1.94 nM | 85.6% |
| COC[C@H]1CN(c2ccc3c(c2)N2C[C@@H]4CC[C@H](COc5c(c(C)nn5C)-c5cc(cc(C)n5)C(=O)/N=C/2N3)C4)CCN1C1CCN(c2c(C)cc(C3CCC(=O)NC3=O)nc2C)CC1 (stereo partly drawn) [Example 141, 3-(5-(4-((R)-2-(methoxymethyl)-4-((7^1R,7^3S,E)-1^1,1^3,2^6-trimethyl-3-oxo-5^2,5^3-dihydro-1^1H,5^1H-9-oxa-4-aza-5(2,1)-benzo[d]imidazola-2(2,4)-pyridina-1(4,5)-pyrazola-7(1,3)-cyclopentanacyclononaphane-5^6-yl)piperazin-1-yl)piperidin-1-yl)-4,6-dimethylpyridin-2-yl)piperidine-2,6-dione] | 1.13 nM | 87.5% | 100.38% | 0.825 nM | 98.22% | 7.7 nM | 0.804 nM | 66.1% |
